Assay results published in patent US4550186A, “Binuclear copper (II) carboxylates formed from amine-carboxyboranes” (Duke University, priority 1983, dated 1985).

Experiments:
[1] = system: CF1 male mice; assay: Acute toxicity (LD50); format: in vivo, mouse; details: CF1 mice intraperitoneally, single dose, 7 days
Method: The acute toxicity (LD50 values) was determined in CF1 male mice by administering test drugs intraperitoneally from 5-50 mg/kg as a single dose. The number of deaths recorded over 7 days in the group was determined for each dosage.

[2] = molecular target: T1, ATP Dependent Citrate Lyase (Mus musculus, UniProt Q91V92); assay: In vivo liver enzyme study: ATP dependent citrate lyase; details: CF1 liver after 16 days i.p.
T1 construct: 10% homogenates of CF1 male mouse liver; from tissue; host or cells: CF1 male mouse liver, 10% homogenate
T1 sequence (Q91V92 1-1091): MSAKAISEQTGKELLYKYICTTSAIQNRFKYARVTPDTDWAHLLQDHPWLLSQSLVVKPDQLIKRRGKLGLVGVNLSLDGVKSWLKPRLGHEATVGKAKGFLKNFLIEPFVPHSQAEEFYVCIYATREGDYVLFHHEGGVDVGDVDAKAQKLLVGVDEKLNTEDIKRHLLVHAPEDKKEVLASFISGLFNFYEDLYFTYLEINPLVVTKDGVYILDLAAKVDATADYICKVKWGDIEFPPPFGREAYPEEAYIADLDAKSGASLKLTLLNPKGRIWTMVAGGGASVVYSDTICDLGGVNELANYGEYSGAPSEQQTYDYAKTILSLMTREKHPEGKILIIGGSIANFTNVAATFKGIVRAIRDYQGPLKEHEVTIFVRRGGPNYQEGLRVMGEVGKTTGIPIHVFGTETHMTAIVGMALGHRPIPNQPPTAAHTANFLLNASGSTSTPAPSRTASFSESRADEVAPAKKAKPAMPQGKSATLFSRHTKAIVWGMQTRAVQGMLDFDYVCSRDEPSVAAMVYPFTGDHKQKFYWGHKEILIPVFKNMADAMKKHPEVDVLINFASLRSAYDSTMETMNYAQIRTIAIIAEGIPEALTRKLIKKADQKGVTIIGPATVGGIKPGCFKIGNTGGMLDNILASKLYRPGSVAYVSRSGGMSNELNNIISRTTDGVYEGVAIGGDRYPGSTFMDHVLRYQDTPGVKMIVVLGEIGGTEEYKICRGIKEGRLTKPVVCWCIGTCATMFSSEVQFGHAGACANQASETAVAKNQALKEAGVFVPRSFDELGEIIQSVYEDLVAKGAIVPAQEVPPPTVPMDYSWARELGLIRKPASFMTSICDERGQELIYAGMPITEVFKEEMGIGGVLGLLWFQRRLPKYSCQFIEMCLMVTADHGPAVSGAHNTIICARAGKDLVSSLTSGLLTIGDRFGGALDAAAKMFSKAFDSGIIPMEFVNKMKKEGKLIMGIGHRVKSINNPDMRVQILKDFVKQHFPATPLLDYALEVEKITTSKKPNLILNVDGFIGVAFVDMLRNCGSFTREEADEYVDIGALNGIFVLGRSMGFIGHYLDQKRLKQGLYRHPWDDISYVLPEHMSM
Method: In vitro enzymatic studies were determined using 10% homogenates of CF1 male mouse liver with 50-200 μM of test drugs. In vivo enzymatic studies were determined using 10% homogenates of liver from CF1 male mice obtained after administering the agents for 16 days at a dose ranging from 2.5-20 mg/kg/day intraperitoneally. The liver homogenates for both in vitro and in vivo studies were prepared in 0.25M sucrose and 0.001M (ethylenedinitrilo)tetraacetic acid. Acetyl coenzyme A synthetase and adenosine triphosphate dependent citrate lyase activities were determined spectrophotometrically at 540 nm as the hydroxylamate of acetyl coenzyme A formed after 30 min at 37° C. Mitochondrial citrate exchange was determined by the procedure of Robinson et al [Eur. J. Biochem., 216, 63 (1970)] using ^14 C-sodium bicarbonate (41 mCi/mmol) incorporated into mitochondrial ^14 C-citrate after isolating rat mitochondria (9000 g×10 min) from the homogenates. The exchanges of the ^14 C-citrate were determined after incubating the mitochondrial fraction which was loaded with labeled citrate and test drugs for 10 min. Then the radioactivity was measured in the mitochondrial and supernantant fractions in scintillation fluid and expressed as a percentage. Cholesterol side chain oxidation was determined by the method of Kritchevsky and Tepper [Artherosclerosis, 18, 93 (1973)] using (26-^14 C) cholesterol (50 mCi/mmol) and mitochondria isolated from rat liver homogenates. […] Fatty acid synthetase activity was determined by the method of Brady et al [J. Biol. Chem., 235, 3093 (1960)] using [2-^14 C] malonyl-coenzyme A (37.5 mCi/mmol) which was incorporated into newly synthesized fatty acids that were extracted with ether and counted. Acyl transferase activity was determined with glycerol-3phosphate [L-2-^3 H(N)] […] HCl and counted. Phosphatidate phosphohydrolase activity was measured as the inorganic phosphate released after 30 min from phosphatidic acid by the method of Mavis et al [J. Lipid Res., 19, 467 (1978)]. […]

{Cu[(CH3)3 N.BH2 CO2 ]2.(CH3)3 N.BH2 COOH} [Compound I]
LD50 [1]: 39.2 mg/kg
ATP Dependent Citrate Lyase ([2]; 2.5 mg/kg): 70 ± 6% of control
ATP Dependent Citrate Lyase ([2]; 5.0 mg/kg): 79 ± 7% of control
ATP Dependent Citrate Lyase ([2]; 10 mg/kg): 72 ± 7% of control
